Assay results taken from patent US5795954A, “Factor VIIa inhibitors from Kunitz domain proteins” (Genentech, Inc., priority 1994, dated 1998).
Read-outs that look alike come from different tables or passages of the source. Positions of bridges follow the written chain, without caps; N, C: chain ends. No end group written: not given here.

Assays:
Type in all cases: biochemical
thrombin = thrombin (Homo sapiens, UniProt P00734); experiment: thrombin enzyme inhibition assay (Ki*)
Protocol: (§1) To aliquots of serial diluted inhibitor, either activated protein C, thrombin, FXa, FXIa, FXIIa, plasma kallikrein or plasmin were added. After incubation and addition of the appropriate substrate, plots of fractional activity versus inhibitor concentration were generated as described in Example 3.
(§2) After incubation of the substrate/inhibitor mixes at room temperature for 1-3 h, the appropriate substrate (20 μL) was added, and the absorbance at 405 nm was monitored. Controls lacking inhibitor and enzyme were assayed to measure the uninhibited and substrate hydrolysis rates, respectively. Plots of the fractional rate versus inhibitor concentration were fit by nonlinear regression analysis to equation 1 and apparent equilibrium dissociation constants (Ki *) were determined. […] The concentrations of activated protein C, thrombin and plasmin were based upon those of the supplier.

TF.cndot.FVIIa = target: T1, TF.cndot.FVIIa (Homo sapiens, UniProt P08709); experiment: TF·FVIIa enzyme inhibition assay, apparent equilibrium dissociation constant (Ki*)
T1 construct: is generated by proteolysis of a single peptide bond from its zymogen Factor VII (FVII); purchased Haematologic Technologies Inc. (Essex Jct., Vt.); host or cells: TF1-243 made in house in E. coli
T1 sequence (P08709 213-466 limits assumed): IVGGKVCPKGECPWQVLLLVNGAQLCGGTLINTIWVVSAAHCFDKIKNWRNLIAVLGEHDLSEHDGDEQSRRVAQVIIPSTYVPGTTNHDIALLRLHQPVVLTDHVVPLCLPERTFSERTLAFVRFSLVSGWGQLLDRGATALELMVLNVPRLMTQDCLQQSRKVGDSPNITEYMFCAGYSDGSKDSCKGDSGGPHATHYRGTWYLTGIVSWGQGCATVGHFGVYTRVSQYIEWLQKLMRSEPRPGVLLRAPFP
T1 sequence (P08709 61-212 limits assumed): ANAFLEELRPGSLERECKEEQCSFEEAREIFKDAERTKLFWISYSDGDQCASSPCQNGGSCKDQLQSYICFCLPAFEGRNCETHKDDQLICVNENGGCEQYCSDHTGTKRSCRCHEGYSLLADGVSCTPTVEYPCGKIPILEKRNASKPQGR
T1 sequence (P13726 33-275 partner limits assumed): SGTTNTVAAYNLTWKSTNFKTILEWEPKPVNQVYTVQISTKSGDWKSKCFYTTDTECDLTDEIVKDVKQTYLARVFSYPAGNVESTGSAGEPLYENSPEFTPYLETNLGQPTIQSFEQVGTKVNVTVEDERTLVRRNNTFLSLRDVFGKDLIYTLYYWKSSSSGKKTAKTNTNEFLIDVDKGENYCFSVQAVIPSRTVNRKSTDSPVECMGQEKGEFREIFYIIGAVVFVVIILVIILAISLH
Protocol: Aliquots (25 μL) from each well of a microtiter plate containing the serially diluted inhibitors were transferred into new microtiter plates, each containing a different protease (100 μL) in the appropriate buffer. The proteases tested (protease concentration, buffer, substrate) were FVIIa (10 nM, Buffer A, 0.7 mM S2366), FXIa (1.0 nM, Buffer B containing 1 mg/ml BSA, 0.7 mM S2366), plasma kallikrein (3.5 nM, Buffer B, 0.5 mM S2302), and plasmin (15 nM, Buffer B, 1 mM S2251).

FXa = target: T2, FXa (Homo sapiens, UniProt P00742); experiment: FXa enzyme inhibition assay (Ki*)
T2 construct: purchased Haematologic Technologies Inc. (Essex Jct., Vt.)
T2 sequence (P00742 235-488 limits assumed): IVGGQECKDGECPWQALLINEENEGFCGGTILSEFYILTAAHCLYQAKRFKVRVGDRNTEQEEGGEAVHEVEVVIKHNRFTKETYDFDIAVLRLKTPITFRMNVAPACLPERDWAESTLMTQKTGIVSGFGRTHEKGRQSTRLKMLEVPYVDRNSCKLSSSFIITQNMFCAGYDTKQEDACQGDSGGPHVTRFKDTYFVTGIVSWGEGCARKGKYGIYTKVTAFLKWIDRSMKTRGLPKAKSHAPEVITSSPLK
T2 sequence (P00742 41-179 limits assumed): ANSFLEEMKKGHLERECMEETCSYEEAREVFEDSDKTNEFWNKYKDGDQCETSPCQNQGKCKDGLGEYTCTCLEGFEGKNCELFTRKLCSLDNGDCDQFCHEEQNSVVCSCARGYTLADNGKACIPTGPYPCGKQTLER
Protocol: as §1, §2

FXIIa = target: T3, FXIIa (Homo sapiens, UniProt P00748); experiment: FXIIa enzyme inhibition assay (Ki*)
T3 construct: purchased Enzyme Research Laboratories, Inc. (South Bend, Ind.)
T3 sequence (P00748 373-615 limits assumed): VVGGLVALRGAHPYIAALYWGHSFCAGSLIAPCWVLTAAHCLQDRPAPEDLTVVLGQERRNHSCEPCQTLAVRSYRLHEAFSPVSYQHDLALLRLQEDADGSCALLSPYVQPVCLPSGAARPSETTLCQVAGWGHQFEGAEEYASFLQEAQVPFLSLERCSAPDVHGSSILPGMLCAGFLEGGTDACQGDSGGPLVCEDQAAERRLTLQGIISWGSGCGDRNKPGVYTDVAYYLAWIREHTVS
T3 sequence (P00748 20-372 limits assumed): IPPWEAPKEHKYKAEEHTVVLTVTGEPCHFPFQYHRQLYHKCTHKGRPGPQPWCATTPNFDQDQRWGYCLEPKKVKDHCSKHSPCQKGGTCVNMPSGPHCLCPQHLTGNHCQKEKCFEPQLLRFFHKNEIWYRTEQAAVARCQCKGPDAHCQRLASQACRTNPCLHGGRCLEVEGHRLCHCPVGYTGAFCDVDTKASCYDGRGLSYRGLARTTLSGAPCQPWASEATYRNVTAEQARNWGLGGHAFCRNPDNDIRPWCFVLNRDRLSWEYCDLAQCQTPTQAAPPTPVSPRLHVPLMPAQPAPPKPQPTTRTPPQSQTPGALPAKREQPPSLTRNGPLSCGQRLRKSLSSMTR
Protocol: as §1, §2

activated protein C = target: T4, activated protein C (Homo sapiens, UniProt P04070); experiment: activated protein C enzyme inhibition assay (Ki*)
T4 construct: purchased Haematologic Technologies Inc. (Essex Jct., Vt.)
T4 sequence (P04070 212-450 limits assumed): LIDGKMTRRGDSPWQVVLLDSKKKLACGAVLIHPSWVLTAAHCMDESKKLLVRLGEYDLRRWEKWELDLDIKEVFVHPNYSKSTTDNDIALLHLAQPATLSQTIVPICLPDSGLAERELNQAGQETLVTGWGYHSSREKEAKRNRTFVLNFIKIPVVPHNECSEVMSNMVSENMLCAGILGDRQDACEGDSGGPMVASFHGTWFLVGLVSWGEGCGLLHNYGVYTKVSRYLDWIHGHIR
T4 sequence (P04070 43-197 limits assumed): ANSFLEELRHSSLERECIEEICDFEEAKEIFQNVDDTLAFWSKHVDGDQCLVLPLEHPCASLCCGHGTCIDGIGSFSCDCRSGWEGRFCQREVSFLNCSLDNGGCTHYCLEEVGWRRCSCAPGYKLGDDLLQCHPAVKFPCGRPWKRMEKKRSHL
Protocol: as §1, §2

[1] = test system: normal human plasma, clotting initiated by TF membranes; experiment: tissue factor initiated prothrombin time (PT) assay
Protocol: FIG. 6. Prolongation of clotting time in the PT assay in normal human plasma. […] The uninhibited clotting time was 48 sec.
Clotting times were performed using the ACL 300 Research Coagulation Analyzer. For the prothrombin time (PT) assays, the incubation time was set at 120 sec and acquisition time at 120 to 600 sec depending on the expected outcome of the assay. Membranes from 293 cells expressing full length TF (Paborsky, L. R. et al., Biochemistry 28: 8072-8077 [1989]) were premixed with CaCl2. The sample (plasma and inhibitor) and reagent (CaCl2 /TF) were automatically mixed together after a 2 min incubation at 37° C. The clotting time was determined by optical assessment. The total incubation time of inhibitor with plasma before addition of CaCl2 /TF was ca. 5 min. Final concentrations were 2 to 20 μM inhibitor, 3.7 nM TF (0.9 μg/ml by protein content), 22.5 mM CaCl2, and 50% plasma in a total volume of 160 μL.

[2] = test system: normal human plasma, clotting initiated by ellagic acid; experiment: activated partial thromboplastin time (APTT) assay; conditions: ca. 7 μM inhibitor
Protocol: FIG. 7. Prolongation of clotting time in the APTT assay in normal human plasma. […] The uninhibited clotting time was 31 sec.
For the activated partial thromboplastin time (APTT) assays, the activation time was set at 120 sec and acquisition time at 300 to 600 sec depending on the expected outcome of the assay. Citrated normal human plasma and inhibitor were incubated together. The sample (plasma and inhibitor) and activator (Instrumentation Laboratories Ellagic acid/Phospholipid mix Test Reagent) were automatically pipetted and incubated together for 2 min at 37° C., then CaCl2 was added and clotting time determined by means of optical assessment. The total incubation time of inhibitor with plasma was ca. 3 min before addition of activator, and 5 min before addition of CaCl2.

[3] = equilibrium conditions, read-out: apparent Ki* with TF.cndot.FVIIa (FIG. 4)

| Substance | Ki (thrombin) [nM] | Ki (TF.cndot.FVIIa; FVIIa 10 nM, TF1-243 50 nM, nonlinear regression, equation 1, read-out: Ki* with TF.cndot.FVIIa (FIG. 5, representative determination)) [nM] | Ki (TF.cndot.FVIIa; [3]) [nM] | Ki (FXa) [nM] | Ki (FXIIa) [nM] | Ki (activated protein C) [nM] | prolongation of clotting time in PT assay ([1]; 10 μM inhibitor, clotting initiated by TF membranes) [fold] | prolongation of clotting time in PT assay ([1]; ca. 20 μM inhibitor) [fold] | prolongation of clotting time in APTT assay [2] |
| --- | --- | --- | --- | --- | --- | --- | --- | --- | --- |
| VREVCSEQAETGPCRAMISRWYFDVTEGKCAPFFYGGCGGNRNNFDTEEYCMAVCGSA (disulfide 5-55, 14-38, 30-51) [APPI] | > 10000 | 300 | 301 ± 44 | > 10000 | > 10000 | > 10000 | – | – | – |
| TF7I-C: APPI Kunitz domain variant (SEQ ID NO: 33) with Thr11Pro, Met17Leu, Ser19Leu and Gly39Tyr compared to wild type APPI | – | – | – | – | – | – | ~3 | 4 | greater than 10 fold |
| first Kunitz domain of TFPI: first Kunitz domain (residues 22-79) of human tissue factor pathway inhibitor (MHSFCAFKADDGPCKAIMKRFFFNIFTRQCEEFIYGGCEGNQNRFESLEECKKMCTRD) | – | – | ~600 | – | – | – | – | – | – |
